Test results published in patent publication US20240158446A1, “CYCLIC COMPOUND HAVING SELECTIVE INHIBITORY ACTION ON KRAS OVER HRAS AND NRAS” (CHUGAI SEIYAKU KABUSHIKI KAISHA, priority 2021, published 2024).
Read-outs that look alike come from different tables or passages of the source.

Assays:
[1] = molecular target: GDP-bound HRAS wild-type protein (Homo sapiens, UniProt P01112); assay: Binding to HRAS by surface plasmon resonance (SPR), Single Cycle Kinetics; conditions: for HRAS/KRAS (ratio of KD value with respect to GDP-bound HRAS wild-type protein to KD value with respect to KRAS): SPR KD ratio HRAS/KRAS, class symbols; for HRAS/KRAS (ratio of KD value for HRAS to KD value for KRAS): SPR, GDP-bound HRAS wild-type protein vs GDP-bound KRAS wild-type protein
GDP-bound HRAS wild-type protein, sequence (P01112 whole entry): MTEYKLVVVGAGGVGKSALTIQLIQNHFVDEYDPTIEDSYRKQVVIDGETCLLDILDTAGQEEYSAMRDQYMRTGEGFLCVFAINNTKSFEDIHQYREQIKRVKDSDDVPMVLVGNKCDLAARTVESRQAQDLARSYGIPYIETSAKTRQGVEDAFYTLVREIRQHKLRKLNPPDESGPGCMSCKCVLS

[2] = molecular target: GDP-bound NRAS wild-type protein (Homo sapiens, UniProt P01111); assay: Binding to NRAS by surface plasmon resonance (SPR), Single Cycle Kinetics; conditions: for NRAS/KRAS (ratio of KD value with respect to GDP-bound NRAS wild-type protein to KD value with respect to KRAS): SPR KD ratio NRAS/KRAS, class symbols; for NRAS/KRAS (ratio of KD value for NRAS to KD value for KRAS): SPR, GDP-bound NRAS wild-type protein vs GDP-bound KRAS wild-type protein
GDP-bound NRAS wild-type protein, sequence (P01111 whole entry): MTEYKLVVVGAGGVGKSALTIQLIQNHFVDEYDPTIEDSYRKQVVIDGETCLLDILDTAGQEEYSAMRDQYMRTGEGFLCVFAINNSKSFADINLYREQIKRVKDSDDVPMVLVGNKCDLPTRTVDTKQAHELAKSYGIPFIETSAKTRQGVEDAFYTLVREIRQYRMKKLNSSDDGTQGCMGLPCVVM

[3] = test system: human lung cancer strain NCI-H441;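 note: cell proliferation inhibition after four days measured by CellTiter-Glo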
[4] = molecular target: GDP-bound KRAS wild-type protein (Homo sapiens, UniProt P01116); assay: Binding to KRAS by surface plasmon resonance (SPR), Single Cycle Kinetics; conditions: GDP-bound KRAS wild-type protein, read-out: KRAS KD
GDP-bound KRAS wild-type protein, sequence (P01116 whole entry): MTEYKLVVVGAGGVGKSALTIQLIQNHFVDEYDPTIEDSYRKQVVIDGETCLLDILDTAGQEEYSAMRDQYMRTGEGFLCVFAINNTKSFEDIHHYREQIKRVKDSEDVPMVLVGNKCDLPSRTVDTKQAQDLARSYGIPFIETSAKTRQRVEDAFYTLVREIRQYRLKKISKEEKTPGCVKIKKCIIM

[5] = SPR Single Cycle Kinetics, 1:1 binding model
[6] = SPR, Single Cycle Kinetics, 1:1 binding model

Structure (SMILES)	HRAS/KRAS (ratio of KD value with respect to GDP-bound HRAS wild-type protein to KD value with respect to KRAS) [1]	NRAS/KRAS (ratio of KD value with respect to GDP-bound NRAS wild-type protein to KD value with respect to KRAS) [2]	IC50 [3] [nM]	Kd [4, 5] [nM]	HRAS/KRAS (ratio of KD value for HRAS to KD value for KRAS) [1]	NRAS/KRAS (ratio of KD value for NRAS to KD value for KRAS) [2]	Kd ([4]; SPR, Single Cycle Kinetics) [nM]	HRAS/KRAS (ratio of KD value for HRAS to KD value for KRAS) ([1]; KD ratio class)	NRAS/KRAS (ratio of KD value for NRAS to KD value for KRAS) ([2]; KD ratio class)	Kd [4, 6] [nM]
CCC(CC)[C@H]1C(=O)N(C)[C@H](C(=O)N2CCCCC2)CC(=O)N(C)[C@@H](COC)C(=O)N[C@@H]([C@@H](C)CC)C(=O)N(C)CC(=O)N(C)[C@H]2C/C=C\CCN(C2=O)[C@@H](Cc2ccc(C(F)(F)F)cc2)C(=O)N(C)CC(=O)N[C@@H](CCc2cc(F)c(C(F)(F)F)c(F)c2)C(=O)N2C[C@H](OC(C)C)C[C@H]2C(=O)NC2(CC(C)(C)C2)C(=O)N1C [PP2608]	A (a compound having 10 or more and less than 20 is denoted as A)	AA (a compound having 20 or more is denoted as AA)	53	1.4	–	–	–	–	–	–
CCCOC[C@H]1C(=O)N[C@@H]([C@@H](C)CC)C(=O)N2CCC[C@H]2C(=O)N(C)[C@H]2C/C=C\CCN(C2=O)[C@@H](Cc2ccc(C)cc2)C(=O)N(C)CC(=O)N[C@@H](CCc2cc(F)c(C(F)(F)F)c(F)c2)C(=O)N2C[C@H](C)C[C@H]2C(=O)NC2(CC(C)(C)C2)C(=O)N(C)[C@@H](C2CCCC2)C(=O)N(C)[C@H](C(=O)N(C)CC)CC(=O)N1C [PP2430]	–	–	33.2	–	A (a compound having 10 or more and less than 20 is denoted as A)	AA (a compound having 20 or more is denoted as AA)	1.4	–	–	–
CCC[C@@H]1C[C@H]2C(=O)NC3(CC(C)(C)C3)C(=O)N(C)[C@@H](C3CCCC3)C(=O)N(C)[C@H](C(=O)N(C)C)CC(=O)N(C)[C@@H](C)C(=O)N[C@@H]([C@@H](C)CC)C(=O)N(C)CC(=O)N(C)[C@H]3C/C=C\CCN(C3=O)[C@@H](Cc3ccc(C(F)(F)F)cc3)C(=O)N(C)CC(=O)N[C@@H](CCc3cc(F)c(C(F)(F)F)c(F)c3)C(=O)N2C1 [PP2273]	–	–	1.6	–	A (a compound having 10 or more and less than 20 is denoted as A)	AA (a compound having 20 or more is denoted as AA)	0.19	–	–	–
CCO[C@@H]1C[C@H]2C(=O)NC3(CCC3)C(=O)N(C)[C@@H](C3CCCC3)C(=O)N(C)[C@H](C(=O)N(C)C)CC(=O)N(C)[C@@H](CC3CCCC3)C(=O)N[C@@H]([C@@H](C)CC)C(=O)N(C)CC(=O)N(C)[C@H]3C/C=C\CCN(C3=O)[C@@H](Cc3ccc(C(F)(F)F)cc3)C(=O)N(C)CC(=O)N[C@@H](CCc3cc(F)c(C(F)(F)F)c(F)c3)C(=O)N2C1 [PP1112, (2S,8S,12R,14S,20S,23S,27S,30S,36S,38Z)-20-cyclopentyl-27-(cyclopentylmethyl)-8-[2-[3,5-difluoro-4-(trifluoromethyl)phenyl]ethyl]-12-ethoxy-N,N,4,19,22,26,32,35-octamethyl-30-[(1S)-1-methylpropyl]-3,6,9,15,18,21,25,28,31,34,42-undecaoxo-2-[[4-(trifluoromethyl)phenyl]methyl]spiro[1,4,7,10,16,19,22,26,29,32,35-undecazatricyclo[34.5.1.0^10,14]dotetracont-38-ene-17,1′-cyclobutane]-23-carboxamide]	–	–	10.4	–	B (a compound having 3 or more and less than 10 is denoted as B)	A (a compound having 10 or more and less than 20 is denoted as A)	0.06	–	–	–
CCCOC[C@H]1C(=O)N[C@@H]([C@@H](C)CC)C(=O)N(C)CC(=O)N(C)[C@H]2C/C=C\CCN(C2=O)[C@@H](CC2CCC(F)(F)CC2)C(=O)N(C)CC(=O)N[C@@H](CCc2ccc(C(F)(F)F)c(OC)c2)C(=O)N2C[C@@H](C)C[C@H]2C(=O)N(C)C2(CCC2)C(=O)N(C)[C@@H](C2CCCC2)C(=O)N(C)[C@H](C(=O)N(C)C)CC(=O)N1C [PP2377]	–	–	5.7	–	A (a compound having 10 or more and less than 20 is denoted as A)	A (a compound having 10 or more and less than 20 is denoted as A)	0.32	–	–	–
CCC[C@H]1C(=O)N[C@@H]([C@@H](C)CC)C(=O)N(C)CC(=O)N(C)[C@H]2C/C=C\CCN(C2=O)[C@@H](Cc2ccc(C)cc2)C(=O)N(C)CC(=O)N[C@@H](CCc2ccc(Cl)c(Cl)c2)C(=O)N2C[C@H](OCC)C[C@H]2C(=O)NC2(CC(C)(C)C2)C(=O)N(C)[C@@H](CC(C)(C)C)C(=O)N(C)[C@H](C(=O)N(C)C)CC(=O)N1C [PP2714]	A (a compound having 10 or more and less than 20 is denoted as A)	A (a compound having 10 or more and less than 20 is denoted as A)	13.2	0.25	–	–	–	–	–	–
CCO[C@@H]1C[C@H]2C(=O)NC3(CCC3)C(=O)N(C)[C@@H](C3CCCC3)C(=O)N(C)[C@H](C(=O)N3CCC3)CC(=O)N(C)[C@@H](CC)C(=O)N[C@@H]([C@@H](C)CC)C(=O)N(C)CC(=O)N(C)[C@H]3C/C=C\CCN(C3=O)[C@@H](CC3CCCCC3)C(=O)N(C)CC(=O)N[C@@H](CCc3cc(F)c(C(F)(F)F)c(F)c3)C(=O)N2C1 [PP1445]	–	–	92.8	–	–	–	–	A (a compound having 10 or more and less than 20 is denoted as A)	A (a compound having 10 or more and less than 20 is denoted as A)	0.27
CCC[C@H]1C(=O)N[C@@H]([C@@H](C)CC)C(=O)N(C2CC2)CC(=O)N(C)[C@H]2C/C=C\CCN(C2=O)[C@@H](Cc2ccc(C(F)(F)F)cc2)C(=O)N(C)CC(=O)N[C@@H](CCc2ccc(C(F)(F)F)c(OC)c2)C(=O)N2C[C@@H](C)C[C@H]2C(=O)N(C)C2(CCC2)C(=O)N(C)[C@@H](C2CCCC2)C(=O)N(C)[C@H](C(=O)N(C)C)CC(=O)N1C [PP2360]	–	–	2.9	–	B (a compound having 3 or more and less than 10 is denoted as B)	A (a compound having 10 or more and less than 20 is denoted as A)	0.16	–	–	–
CCC[C@H]1C(=O)N[C@@H]([C@@H](C)CC)C(=O)N(C2CC2)CC(=O)N(C)[C@H]2C/C=C\CCN(C2=O)[C@@H](Cc2ccc(C)cc2)C(=O)N(C)CC(=O)N[C@@H](CCc2cc(F)c(C(F)(F)F)c(F)c2)C(=O)N2C[C@H](OC3CCC3)C[C@H]2C(=O)NC2(CC(C)(C)C2)C(=O)N(C)[C@@H](C2CCCC2)C(=O)N(C)[C@H](C(=O)N(C)C)CC(=O)N1C [PP2614]	A (a compound having 10 or more and less than 20 is denoted as A)	A (a compound having 10 or more and less than 20 is denoted as A)	12.1	0.27	–	–	–	–	–	–
CCCC[C@H]1C(=O)N[C@@H]([C@@H](C)CC)C(=O)N(C)CC(=O)N(C)[C@H]2C/C=C\CCN(C2=O)[C@@H](Cc2ccc(C(F)(F)F)cc2)C(=O)N(C)CC(=O)N[C@@H](CCc2cc(F)c(C(F)(F)F)c(F)c2)C(=O)N2C[C@H](OCC)C[C@H]2C(=O)NC2(CCC2)C(=O)N(C)[C@@H](C2CCCC2)C(=O)N(C)[C@H](C(=O)N(C)C)CC(=O)N1C [PP1392, (2S,8S,12R,14S,20S,23S,27S,30S,36S,38Z)-27-butyl-20-cyclopentyl-8-[2-[3,5-difluoro-4-(trifluoromethyl)phenyl]ethyl]-12-ethoxy-N,N,4,19,22,26,32,35-octamethyl-30-[(1S)-1-methylpropyl]-3,6,9,15,18,21,25,28,31,34,42-undecaoxo-2-[[4-(trifluoromethyl)phenyl]methyl]spiro[1,4,7,10,16,19,22,26,29,32,35-undecazatricyclo[34.5.1.0^10,14]dotetracont-38-ene-17,1′-cyclobutane]-23-carboxamide]	–	–	1.4	–	–	–	–	A (a compound having 10 or more and less than 20 is denoted as A)	A (a compound having 10 or more and less than 20 is denoted as A)	0.047
CCC[C@H]1C(=O)N[C@@H]([C@@H](C)CC)C(=O)N(C2CC2)CC(=O)N(C)[C@H]2C/C=C\CCN(C2=O)[C@@H](Cc2ccc(C)cc2)C(=O)N(C)CC(=O)N[C@@H](CCc2cc(F)c(C(F)(F)F)c(F)c2)C(=O)N2C[C@H](OCC)C[C@H]2C(=O)NC2(CC(C)(C)C2)C(=O)N(C)[C@@H](C(CC)CC)C(=O)N(C)[C@H](C(=O)N(C)C)CC(=O)N1C [PP2560]	A (a compound having 10 or more and less than 20 is denoted as A)	AA (a compound having 20 or more is denoted as AA)	46.3	1	–	–	–	–	–	–
CC[C@H](C)[C@@H]1NC(=O)[C@H](COC)N(C)C(=O)C[C@@H](C(=O)N(C)C)N(C)C(=O)[C@H](C2CCCC2)N(C)C(=O)C2(CC(C)(C)C2)NC(=O)[C@@H]2C[C@@H](OC3CCC3)CN2C(=O)[C@H](CCc2ccc(Cl)c(Cl)c2)NC(=O)CN(C)C(=O)[C@H](CC2CCC(F)(F)CC2)N2CC/C=C\C[C@@H](C2=O)N(C)C(=O)CN(C2CC2)C1=O [PP2624]	A (a compound having 10 or more and less than 20 is denoted as A)	A (a compound having 10 or more and less than 20 is denoted as A)	174	1.3	–	–	–	–	–	–
